Legend:
Aβ1-42 = target: T1, Aβ1-42 (Homo sapiens, UniProt P05067); experiment: Inhibition of Aβ1-42 self-aggregation (ThT fluorescence); type: biochemical; conditions: [Inhibitor]=[Aβ1-42]=50 µM, mean ± SEM
T1 construct: pre-treated Aβ1-42 samples (Bachem AG, Switzerland); purchased Bachem AG, Switzerland
Protocol: Experiments were performed by incubating the peptide in 10 mM phosphate buffer (pH=8.0) containing 10 mM NaCl, at 30 °C for 24 h (final Aβ concentration=50 µM with and without inhibitor (50 µM). The inhibitor was dissolved in methanol and diluted in the assay buffer. Blanks containing inhibitor and ThT were also prepared and evaluated to account for quenching and fluorescence properties. To quantify amyloid fibril formation, the ThT fluorescence method was used^36, 37. After incubation, samples were diluted to a final volume of 2.0 mL with […] glycine-NaOH buffer (pH= 8.5) containing 1.5 µM ThT. A 300-seconds-time scan of fluorescence intensity was carried out (λexc=446 nm; λem=490 nm), and values at plateau were averaged after subtracting the background fluorescence of 1.5 µM ThT solution. The fluorescence intensities were compared and the % inhibition was calculated.
The inhibitory activity of compounds BIGI-3e, BIGI-3h and BIGI-3k against the spontaneous aggregation of Aβ1-42 was determined in vitro using a thioflavin T (ThT)-based fluorometric assay^35. […].

human AChE = target: T2, human AChE (Homo sapiens, UniProt P22303); experiment: Kinetic study of inhibition of AChE hydrolysis (Lineweaver-Burk, nonlinear regression); type: biochemical; conditions: for Ki: substrate acetylthiocholine; for type of inhibition: sum-of-squares F-test, p<0.05
T2 construct: purchased Sigma-Aldrich (Prague, Czech Republic); host or cells: human red blood cells
T2 sequence (P22303 32-617 isoform P22303-2 limits assumed): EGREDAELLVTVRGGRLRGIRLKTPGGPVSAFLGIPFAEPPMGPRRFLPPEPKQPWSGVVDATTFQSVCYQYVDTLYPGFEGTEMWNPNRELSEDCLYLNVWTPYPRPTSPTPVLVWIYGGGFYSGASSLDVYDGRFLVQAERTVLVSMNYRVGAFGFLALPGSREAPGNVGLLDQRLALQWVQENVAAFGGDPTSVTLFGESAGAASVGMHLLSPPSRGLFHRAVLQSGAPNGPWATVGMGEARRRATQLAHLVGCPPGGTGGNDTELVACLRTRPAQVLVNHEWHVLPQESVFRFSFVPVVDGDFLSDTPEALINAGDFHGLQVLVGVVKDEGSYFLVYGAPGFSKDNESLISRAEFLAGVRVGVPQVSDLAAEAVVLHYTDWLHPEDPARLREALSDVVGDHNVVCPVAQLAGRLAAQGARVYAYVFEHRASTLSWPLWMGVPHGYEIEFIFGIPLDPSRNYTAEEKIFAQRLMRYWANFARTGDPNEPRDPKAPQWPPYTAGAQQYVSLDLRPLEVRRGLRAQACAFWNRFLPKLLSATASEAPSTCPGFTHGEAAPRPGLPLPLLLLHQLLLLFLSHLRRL
Protocol: To obtain insight into the interactions of BIGI-3h and BIGI-3e with human AChE, a kinetic study was conducted. Substrate concentration - enzyme velocity curves were recorded in the presence of different concentrations of the tested compounds. […] The type of inhibition and corresponding inhibition constants (Ki and Ki') were determined by the nonlinear regression analysis of data. Results for each type model of inhibition (competitive, non-competitive, uncompetitive and mixed) were compared with sum-of-squares F-test. […] BIGI-3h and BIGI-3e bind to both free AChE and AChE-substrate complex, affecting the binding of substrate in the active site of enzyme, interacting with its allosteric peripheral anionic site. Interaction with this site causes conformational changes of the enzyme resulting also in changes of its active site. […]. Measured values are consistent with the IC50 values for AChE. It appears that both tested compounds tend to bind free AChE more than enzyme-substrate complex.

Human recombinant GSK-3β = target: T3, Human recombinant GSK-3β (Homo sapiens, UniProt P49841); experiment: GSK-3β inhibition in vitro assay (Kinase-Glo luminescence); type: biochemical; conditions: ATP 1 µM, GSM substrate 25 µM; mean ± SEM
T3 construct: purchased Millipore (Millipore Iberica S.A.U.)
T3 sequence (P49841 whole entry): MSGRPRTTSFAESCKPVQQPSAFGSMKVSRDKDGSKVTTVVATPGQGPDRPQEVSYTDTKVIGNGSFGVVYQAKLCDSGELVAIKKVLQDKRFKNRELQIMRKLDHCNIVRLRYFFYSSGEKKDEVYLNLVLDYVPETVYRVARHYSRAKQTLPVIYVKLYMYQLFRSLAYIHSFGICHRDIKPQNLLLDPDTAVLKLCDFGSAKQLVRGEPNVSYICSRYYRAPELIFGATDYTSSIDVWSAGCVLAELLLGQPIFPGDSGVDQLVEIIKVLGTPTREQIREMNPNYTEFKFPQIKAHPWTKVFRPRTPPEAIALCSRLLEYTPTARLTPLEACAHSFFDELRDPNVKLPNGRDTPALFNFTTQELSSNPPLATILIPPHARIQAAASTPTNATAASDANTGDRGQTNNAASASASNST
Protocol: Human recombinant GSK-3β, prephosphorylated polypeptide substrate and white 96-well plates were purchased from Millipore (Millipore Iberica S.A.U.). Kinase-Glo Luminescent Kinase Assay was obtained from Promega (Promega Biotech Iberica, SL). Adenosinetriphosphate (ATP) and all other reagents were from Sigma-Aldrich. Assay buffer contained 50 mM 4-(2-hydroxyethyl)-1- piperazineethanesulfonic acid (HEPES) (pH 7.5), 1 mM ethylenediaminetetraacetic acid (EDTA), 1 mM ethylene glycol tetraacetic acid (EGTA), and 15 mM magnesium acetate. The in solution experiments for GSK-3β inhibition analysis were performed by following the method developed by Baki et al^42. In a typical assay, 10 µL of test compound (dissolved in DMSO at 1 mM concentration and diluted in advance in assay buffer to the desired concentration) and 10 µL (20 ng) of enzyme were added to each well in presence of 20 µL of assay buffer containing GSM substrate and ATP in order to reach a 25 µM and 1 µM final concentration respectively. […] After a 30 min incubation time at 30 °C, the enzymatic reaction was stopped by adding 40 µL of Kinase-Glo reagent. Glow-type luminescence was recorded after 10 min using a VictorX 3 PerkinElmer plate reader. […]. The linear regression parameters were determined and the IC50 extrapolated (GraphPad Prism 4.0, GraphPad Software Inc.).

[1] = target: T4, Human red-blood cell acetylcholinesterase (hAChE; EC 3.1.1.7) (Homo sapiens, UniProt P22303); experiment: biochemical; conditions: pH 7.4, 37 °C, mean ± SEM, read-out: AChE (IC50 µM)
T4 construct: Human red-blood cell acetylcholinesterase; purchased Sigma-Aldrich (Prague, Czech Republic); host or cells: human red blood cells
T4 sequence (P22303 32-617 isoform P22303-2 limits assumed): as the sequence (P22303 32-617 isoform P22303-2 limits assumed) above
Protocol: The AChE and BuChE inhibitory activity of the tested compounds was determined using a modified Ellman's method^31, 32.Human red-blood cell acetylcholinesterase (hAChE; EC 3.1.1.7), and human recombinant butyrylcholinesterase (hBuChE; EC 3.1.1.8), 5,5'-dithiobis(2-nitrobenzoic acid) (Ellman's reagent, DTNB), phosphate buffer (PB, pH 7.4), acetylthiocholine (ATC), and butyrylthiocholine (BTC), were purchased from Sigma-Aldrich (Prague, Czech Republic). Nunc polystyrene 96-well microplates with flat-bottom shape (ThermoFisher Scientific, USA) were used for the measurement and all the assay were carried out in 0.1 M KH2PO4/K2HPO4 buffer, pH 7.4. Enzyme solution was prepared at activity 2.0 units/mL in 2 mL aliquots. The assay mixture (100 µL) consisted of 40 µL of 0.1 M phosphate buffer (pH 7.4), 20 µL of 0.01 M DTNB, 10 µL of enzyme, and 20 µL of 0.01 M substrate (ATC iodide solution). Tested compounds were dissolved first in methanol (BIGI 23 in DMSO) and then further diluted by assay buffer to the final concentration. […] Enzyme with the inhibitor was preincubated for 5 min in the assay mixture and then the reaction was started by addition of 20 µL of substrate (ATC for AChE, BTC for BuChE). […] Each concentration was assayed in triplicate. The obtained data were used to compute the percentage inhibition (I; Equation 1): I = 1−(ΔAi)/(ΔA0) [%] [formula] ΔAi indicates the absorbance change provided by cholinesterase exposed to AChE inhibitors and ΔA0 indicates absorbance change caused by intact cholinesterase (phosphate buffer was used instead of AChE inhibitor solution).

[2] = binding to AChE-substrate complex

T1 sequence (P05067 672-713 limits assumed): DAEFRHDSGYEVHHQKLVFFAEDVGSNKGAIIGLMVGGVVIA

Row | SMILES | inhibition at 50 µM (Aβ1-42) | % inhibition Aβ1-42 aggregation (Aβ1-42; 50 µM) | Ki (human AChE; [2]) | Ki (human AChE; binding to free AChE) | type of inhibition (human AChE) | IC50 (Human recombinant GSK-3β) | IC50 [1]
1 | CCOC(=O)C1=C(C)N(CCC2CCN(Cc3ccccc3)CC2)C(=O)NC1c1coc2c(Cl)cc(Cl)cc2c1=O (racemic) [BIGI-3h, ethyl 1-(2-(1-benzylpiperidin-4-yl)ethyl)-4-(6,8-dichloro-4-oxo-4H-chromen-3-yl)-6-methyl-2-oxo-1,2,3,4-tetrahydropyrimidine-5-carboxylate] | 66 ± 0.7% | 63.6 ± 1.3% | 77.6 ± 16.4 nM | 21.5 ± 5.19 nM | mixed non-competitive | 29.1 µM | 0.06 µM
2 | CCOC(=O)C1=C(C)N(CCC2CCN(Cc3ccccc3)CC2)C(=O)NC1c1coc2ccc(Br)cc2c1=O (centres unmarked) [BIGI-3e, ethyl 1-(2-(1-benzylpiperidin-4-yl)ethyl)-4-(6-bromo-4-oxo-4H-chromen-3-yl)-6-methyl-2-oxo-1,2,3,4-tetrahydropyrimidine-5-carboxylate] | 63 ± 2.1% |  | 89.5 ± 12.5 nM | 51 ± 12.7 nM | mixed non-competitive |  | 0.06 µM
3 | CCOC(=O)C1=C(C)N(CCCC2CCN(Cc3ccccc3)CC2)C(=O)NC1c1coc2cc(CC)ccc2c1=O (centres unmarked) [BIGI-3k, ethyl 1-(3-(1-benzylpiperidin-4-yl)propyl)-4-(7-ethyl-4-oxo-4H-chromen-3-yl)-6-methyl-2-oxo-1,2,3,4-tetrahydropyrimidine-5-carboxylate] | 63.8 ± 0.8% |  |  |  |  |  | 0.5 ± 0.02 µM
